Results from ChEMBL document CHEMBL5705903, “A DNA Hypomethylation Signature Predicts Antitumor Activity of LSD1 Inhibitors in SCLC” (Cancer Cell, 2015).
Calls of active or inactive are those of the source. No cut-off for these calls is given here.

Legend:
[1] = AUC (0 to infinity) in mouse blood at 5 mg/kg, po by HPLC/MS/MS analysis; format: ADME, organism-based
NCI-H526 [2] = assay: In vivo inhibition of LSD1 in human NCI-H526 cells xenografted in nude mouse assessed as change in TSPAN8 gene expression administrated daily for 5 days by qRT-PCR analysis; format: functional, organism-based; settings: dose 0.02-135 mg/kg, time 5.0 day
[3] = Effect on cleaved PARP level in human NCI-H146 cells assessed as fold change at 100 nM measured after 10 days by Western blot analysis (reference value: 1.00); format: functional; settings: time 10 day
[4] = Effect on cleaved PARP level in human NCI-H889 cells assessed as relative expression at 10 nM measured after 10 days by Western blot analysis (reference value: 0.33); format: functional; settings: time 10 day
COLO-668 [5] = assay: Effect on SYP gene expression in human COLO-668 cells at 1 uM measured after 4 days by qRT-PCR analysis; format: functional, cell-based; settings: time 4.0 day
[6] = Effect on cleaved PARP level in human NCI-H1417 cells assessed as relative expression at 100 nM measured after 7 days by Western blot analysis (reference value: 0.10); format: functional; settings: time 7 day
[7] = Toxicity in rat assessed as effect on ECG measured for 28 days; settings: in vivo, 672 h, time 28 day
[8] = Effect on cleaved PARP level in human COLO-668 cells assessed as relative expression at 1000 nM measured after 7 days by Western blot analysis (reference value: […]); format: functional; settings: time 7 day
[9] = Toxicity in rat assessed as thrombocytopenia measured for 28 days; settings: in vivo, 672 h, time 28 day
[10] = Toxicity in rat assessed as neutrophenia measured for 28 days; settings: in vivo, 672 h, time 28 day
[11] = Effect on cleaved PARP level in human NCI-H146 cells assessed as relative expression at 10 nM measured after 7 days by Western blot analysis (reference value: […]); format: functional; settings: time 7 day
[12] = Effect on cleaved PARP level in human COLO-668 cells assessed as fold change at 1000 nM measured after 7 days by Western blot analysis (reference value: 1.00); format: functional; settings: time 7 day
[13] = Effect on cleaved PARP level in human NCI-H2171 cells assessed as fold change at 10 nM measured after 14 days by Western blot analysis (reference value: 1.00); format: functional; settings: time 14 day
[14] = Effect on cleaved PARP level in human NCI-H146 cells assessed as relative expression at 10 nM measured after 10 days by Western blot analysis (reference value: 0.27); format: functional; settings: time 10 day
[15] = biological target: Lysine-specific histone demethylase 1A (Homo sapiens, UniProt O60341); assay: Binding affinity to LSD1 (unknown origin) using H3K4me2 as substrate assessed as apparent inhibition constant by HRP-coupled amplex red assay; settings: read-out: Ki(app)
COLO-668 [16] = assay: Effect on NCAM gene expression in human COLO-668 cells at 1 uM measured after 4 days by qRT-PCR analysis; format: functional, cell-based; settings: time 4.0 day
NCI-H69 = assay: Antitumor activity against human NCI-H69 cells xenografted in nude mouse assessed as mean tumor volume at 1.5 mg/kg, po administered daily measured twice weekly (reference value: 1063 +/- 161 mm3); format: functional
[17] = Effect on cleaved PARP level in human NCI-H1417 cells assessed as relative expression at 10 nM measured after 10 days by Western blot analysis (reference value: 0.19); format: functional; settings: time 10 day
[18] = Effect on cleaved PARP level in human NCI-H1694 cells assessed as fold change at 100 nM measured after 14 days by Western blot analysis (reference value: 1.00); format: functional; settings: time 14 day
[19] = Cmax in mouse blood at 5 mg/kg, po by HPLC/MS/MS analysis; format: ADME, organism-based
[20] = Effect on cleaved PARP level in human NCI-H889 cells assessed as relative expression at 10 nM measured after 14 days by Western blot analysis (reference value: 0.94); format: functional; settings: time 14 day
[21] = Effect on cleaved PARP level in human NCI-H526 cells assessed as fold change at 100 nM measured after 7 days by Western blot analysis (reference value: 1.00); format: functional; settings: time 7 day
NCI-H510A = assay: Antitumor activity against human NCI-H510A cells xenografted in nude mouse assessed as mean tumor volume at 1.5 mg/kg, po administered daily measured twice weekly (reference value: 1028 +/- 182 mm3); format: functional
[22] = Effect on cleaved PARP level in human NCI-H526 cells assessed as relative expression at 100 nM measured after 10 days by Western blot analysis (reference value: 0.81); format: functional; settings: time 10 day
[23] = Effect on cleaved PARP level in human NCI-H2171 cells assessed as relative expression at 10 nM measured after 14 days by Western blot analysis (reference value: 0.01); format: functional; settings: time 14 day
[24] = Toxicity in rat assessed as congestion in lymphoid organs measured for 28 days; settings: in vivo, 672 h, time 28 day
[25] = Effect on cleaved PARP level in human NCI-H1694 cells assessed as relative expression at 1000 nM measured after 14 days by Western blot analysis (reference value: 0.25); format: functional; settings: time 14 day
[26] = Effect on cleaved PARP level in human NCI-H526 cells assessed as relative expression at 10 nM measured after 7 days by Western blot analysis (reference value: 0.57); format: functional; settings: time 7 day
[27] = Effect on cleaved PARP level in human NCI-H524 cells assessed as fold change at 100 nM measured after 14 days by Western blot analysis (reference value: 1.00); format: functional; settings: time 14 day
[28] = Effect on cleaved PARP level in human NCI-H146 cells assessed as fold change at 10 nM measured after 14 days by Western blot analysis (reference value: 1.00); format: functional; settings: time 14 day
[29] = Effect on cleaved PARP level in human NCI-H2171 cells assessed as relative expression at 1000 nM measured after 14 days by Western blot analysis (reference value: 0.01); format: functional; settings: time 14 day
[30] = Effect on cleaved PARP level in human NCI-H69 cells assessed as relative expression at 100 nM measured after 14 days by Western blot analysis (reference value: 0.03); format: functional; settings: time 14 day
NCI-H526 [31] = assay: Effect on genomic redistribution of LSD1 to new sites in human NCI-H526 cells at 1 uM; format: functional, cell-based
[32] = Effect on cleaved PARP level in human NCI-H69 cells assessed as relative expression at 1000 nM measured after 14 days by Western blot analysis (reference value: 0.03); format: functional; settings: time 14 day
NCI-H526 [33] = assay: In vivo inhibition of LSD1 in human NCI-H526 cells xenografted in nude mouse assessed as change in ZEB1 gene expression measured after 24 hrs post single administration by qRT-PCR analysis; format: functional, organism-based; settings: dose 0.06-135 mg/kg
[34] = Effect on cleaved PARP level in human NCI-H146 cells assessed as relative expression at 100 nM measured after 7 days by Western blot analysis (reference value: […]); format: functional; settings: time 7 day
[35] = Effect on cleaved PARP level in human NCI-H2171 cells assessed as relative expression at 10 nM measured after 10 days by Western blot analysis (reference value: 0.02); format: functional; settings: time 10 day
[36] = AUC (0 to infinity) in mouse tumor at 5 mg/kg, po by HPLC/MS/MS analysis; format: ADME, organism-based, Neoplasm

With O=C(O)c1ccc(CN2CCC(CN[C@@H]3C[C@H]3c3ccccc3)CC2)cc1 [GSK2879552] the AUC(0-inf) [1] was 903 ng·h/mL, the inhibition (NCI-H526 [2]) was “Dose-Dependent Effect” and the “fold change (FC)” value [3] was 0.94. For the same compound, the Activity [4] was 0.55, the Activity (COLO-668 [5]) was “inactive” and the Activity [6] was 0.29. The Activity [7] was “Toxic”, the Activity [8] was 1.36 and the Activity [9] was “Toxic”. The Activity [10] was “Toxic”, the Activity [11] was 2.37 and the “fold change (FC)” value [12] was 0.95. The “fold change (FC)” value [13] was 0.9, the Activity [14] was 0.33 and the Ki [15] was 1.7 µM. The Activity (COLO-668 [16]) was “inactive”, the Activity (NCI-H69) was 610 mm3 and the Activity [17] was 0.27. The “fold change (FC)” value [18] was 0.89, the Cmax [19] was 720 ng/mL and the Activity [20] was 1.73. The “fold change (FC)” value [21] was 1.2, the Activity (NCI-H510A) was 705 mm3 and the Activity [22] was 0.94. The Activity [23] was 0.01, the Activity [24] was “Toxic” and the Activity [25] was 0.21. The Activity [26] was 0.48, the “fold change (FC)” value [27] was 0.74 and the “fold change (FC)” value [28] was 0.64. The Activity [29] was 0.02, the Activity [30] was 0.16 and the Activity (NCI-H526 [31]) was “inactive”. The Activity [32] was 0.17, the inhibition (NCI-H526 [33]) was “Dose-Dependent Effect” and the Activity [34] was 2.21. The Activity [35] was 0.02 and the AUC(0-inf) [36] was 2690 ng·h/mL.
